Our source for the inhibition and Activity values is ChEMBL document CHEMBL4804281, “STK4 inhibitors for treatment of hematologic malignancies” (2020).

The source made the active and inactive calls. No cut-off for these calls is given here. A value given as a limit tells only on which side of the number the result lay.

Experiment [1] concerns the target Mitogen-activated protein kinase kinase kinase kinase 3 (Homo sapiens) (UniProt Q8IVH8). Put plainly: Inhibition of KHS2 in human NCI-H929 cells at 10 uM by mass spectroscopic analysis relative to control. Type of experiment: cell-based.
The target of experiment [2] is Casein kinase I isoform gamma-3 (Homo sapiens) (UniProt Q9Y6M4). The experiment in a line: Inhibition of CK1g3 in human NCI-H929 cells at 10 uM by mass spectroscopic analysis relative to control. Type of experiment: cell-based.
Experiment [3] deals with Casein kinase I isoform alpha (Homo sapiens) (UniProt P48729). The experiment in a line: Inhibition of CK1a in human NCI-H929 cells at 10 uM by mass spectroscopic analysis relative to control. Type of experiment: cell-based.
Experiment [4] has as its target Serine/threonine-protein kinase Nek9 (Homo sapiens) (UniProt Q8TD19). The experiment in a line: Inhibition of NEK9 in human NCI-H929 cells at 10 uM by mass spectroscopic analysis relative to control. Format: cell-based.
The target in experiment [5] is Cyclin-G-associated kinase (Homo sapiens) (UniProt O14976). The experiment in a line: Inhibition of GAK in human NCI-H929 cells at 10 uM by mass spectroscopic analysis relative to control. Format: cell-based.
The target in experiment [6] is eIF-2-alpha kinase GCN2 (Homo sapiens) (UniProt Q9P2K8). The experiment in a line: Inhibition of GCN2 domain 2 in human NCI-H929 cells at 10 uM by mass spectroscopic analysis relative to control. Format: cell-based.
eIF-2-alpha kinase GCN2 (Homo sapiens), sequence (Q9P2K8 whole entry, the tested form may be a part): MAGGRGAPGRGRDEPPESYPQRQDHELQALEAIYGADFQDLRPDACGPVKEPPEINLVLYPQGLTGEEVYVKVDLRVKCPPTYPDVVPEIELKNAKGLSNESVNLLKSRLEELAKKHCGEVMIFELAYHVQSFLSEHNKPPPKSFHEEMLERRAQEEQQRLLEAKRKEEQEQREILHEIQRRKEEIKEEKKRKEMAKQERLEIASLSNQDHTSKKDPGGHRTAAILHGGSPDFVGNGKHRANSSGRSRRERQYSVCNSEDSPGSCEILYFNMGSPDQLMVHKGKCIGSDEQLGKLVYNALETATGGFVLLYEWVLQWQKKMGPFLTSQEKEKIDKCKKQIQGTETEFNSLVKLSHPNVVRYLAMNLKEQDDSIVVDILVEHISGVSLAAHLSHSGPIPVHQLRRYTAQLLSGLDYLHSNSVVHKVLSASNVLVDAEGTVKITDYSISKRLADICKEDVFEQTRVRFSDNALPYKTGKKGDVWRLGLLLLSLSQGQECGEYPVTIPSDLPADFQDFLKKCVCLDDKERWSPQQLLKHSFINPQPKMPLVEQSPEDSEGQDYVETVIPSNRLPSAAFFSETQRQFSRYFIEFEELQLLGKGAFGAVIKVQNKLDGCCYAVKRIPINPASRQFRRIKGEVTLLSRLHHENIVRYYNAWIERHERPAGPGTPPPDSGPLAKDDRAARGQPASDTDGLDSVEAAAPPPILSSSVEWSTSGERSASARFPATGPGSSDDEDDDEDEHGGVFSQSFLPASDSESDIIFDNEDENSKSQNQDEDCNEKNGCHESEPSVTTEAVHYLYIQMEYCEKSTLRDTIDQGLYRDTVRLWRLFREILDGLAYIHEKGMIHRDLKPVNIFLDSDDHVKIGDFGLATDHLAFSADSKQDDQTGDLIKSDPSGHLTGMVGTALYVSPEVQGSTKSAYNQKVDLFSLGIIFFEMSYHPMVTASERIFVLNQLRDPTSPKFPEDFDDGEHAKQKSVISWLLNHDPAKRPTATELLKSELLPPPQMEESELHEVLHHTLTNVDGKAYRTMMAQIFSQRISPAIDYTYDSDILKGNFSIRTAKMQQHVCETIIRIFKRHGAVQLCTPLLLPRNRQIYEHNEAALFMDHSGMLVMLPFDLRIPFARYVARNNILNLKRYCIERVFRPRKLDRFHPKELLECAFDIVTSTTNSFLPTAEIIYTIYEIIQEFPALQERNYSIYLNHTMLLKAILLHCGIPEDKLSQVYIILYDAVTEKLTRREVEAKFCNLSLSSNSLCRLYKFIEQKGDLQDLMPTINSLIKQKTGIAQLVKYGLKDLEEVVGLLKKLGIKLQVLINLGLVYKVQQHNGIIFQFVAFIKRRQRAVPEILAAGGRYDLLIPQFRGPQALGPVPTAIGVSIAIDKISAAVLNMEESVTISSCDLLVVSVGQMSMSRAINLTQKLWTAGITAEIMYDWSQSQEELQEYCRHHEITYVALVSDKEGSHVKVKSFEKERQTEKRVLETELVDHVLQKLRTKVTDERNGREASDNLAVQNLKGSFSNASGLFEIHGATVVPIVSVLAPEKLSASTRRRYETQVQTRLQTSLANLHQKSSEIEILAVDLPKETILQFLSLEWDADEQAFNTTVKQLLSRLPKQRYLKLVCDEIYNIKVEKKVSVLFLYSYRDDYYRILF
The target in experiment [7] is Protein kinase C zeta type (Homo sapiens) (UniProt Q05513). Put plainly: Inhibition of PKCz in human NCI-H929 cells at 10 uM by mass spectroscopic analysis relative to control. Type of experiment: cell-based.
The target of experiment [8] is Dual specificity mitogen-activated protein kinase kinase 4 (Homo sapiens) (UniProt P45985). Put plainly: Inhibition of MAP2K4 in human NCI-H929 cells at 10 uM by mass spectroscopic analysis relative to control. Type of experiment: cell-based.
In experiment [9] the target is 1-phosphatidylinositol 3-phosphate 5-kinase (Homo sapiens) (UniProt Q9Y2I7). The experiment in a line: Inhibition of PIP5K3 in human NCI-H929 cells at 10 uM by mass spectroscopic analysis relative to control. Type of experiment: cell-based.
Experiment [10] deals with Glycogen synthase kinase-3 alpha (Homo sapiens) (UniProt P49840). The experiment in a line: Inhibition of GSK3A in human NCI-H929 cells at 10 uM by mass spectroscopic analysis relative to control. Type of experiment: cell-based.
Experiment [11] concerns the target Phosphatidylinositol 5-phosphate 4-kinase type-2 alpha (Homo sapiens) (UniProt P48426). The experiment in a line: Inhibition of PIP4K2A in human NCI-H929 cells at 10 uM by mass spectroscopic analysis relative to control. Format: cell-based.
For experiment [12], the target named is T1, Serine/threonine-protein kinase 4 (Homo sapiens) (UniProt Q13043).
T1 sequence (whole entry): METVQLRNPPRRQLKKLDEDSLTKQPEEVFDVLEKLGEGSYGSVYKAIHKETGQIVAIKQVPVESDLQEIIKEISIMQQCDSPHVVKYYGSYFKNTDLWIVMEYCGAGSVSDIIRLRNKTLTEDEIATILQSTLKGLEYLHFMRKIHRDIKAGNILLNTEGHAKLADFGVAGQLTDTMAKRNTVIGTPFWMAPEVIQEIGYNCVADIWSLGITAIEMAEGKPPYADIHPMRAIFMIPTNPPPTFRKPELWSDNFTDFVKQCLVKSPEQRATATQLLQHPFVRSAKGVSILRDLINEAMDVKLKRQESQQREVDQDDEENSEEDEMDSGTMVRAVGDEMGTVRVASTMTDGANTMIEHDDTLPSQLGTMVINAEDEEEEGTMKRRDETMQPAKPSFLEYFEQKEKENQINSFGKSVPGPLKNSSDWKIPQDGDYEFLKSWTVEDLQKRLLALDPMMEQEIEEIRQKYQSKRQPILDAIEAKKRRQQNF
Put plainly: Inhibition of MST1 in human NCI-H929 cells at 10 uM by mass spectroscopic analysis relative to control. Format: cell-based.

For experiment [13], the target named is Glycogen synthase kinase-3 beta (Homo sapiens) (UniProt P49841). The experiment in a line: Inhibition of GSK3B in human NCI-H929 cells at 10 uM by mass spectroscopic analysis relative to control. Format: cell-based.
The target of experiment [14] is Misshapen-like kinase 1 (Homo sapiens) (UniProt Q8N4C8). Put plainly: Inhibition of MINK in human NCI-H929 cells by mass spectroscopic analysis. Type of experiment: cell-based. To be noted: concentration not given here.
Experiment [15] addresses Mitogen-activated protein kinase kinase kinase 1 (Homo sapiens) (UniProt Q13233). The experiment in a line: Inhibition of MAP3K1 in human NCI-H929 cells at 10 uM by mass spectroscopic analysis relative to control. Type of experiment: cell-based.
Experiment [16] deals with Dual specificity mitogen-activated protein kinase kinase 7 (Homo sapiens) (UniProt O14733). Put plainly: Inhibition of MAP2K7 in human NCI-H929 cells at 10 uM by mass spectroscopic analysis relative to control. Type of experiment: cell-based.
Dual specificity mitogen-activated protein kinase kinase 7 (Homo sapiens), sequence (O14733 whole entry): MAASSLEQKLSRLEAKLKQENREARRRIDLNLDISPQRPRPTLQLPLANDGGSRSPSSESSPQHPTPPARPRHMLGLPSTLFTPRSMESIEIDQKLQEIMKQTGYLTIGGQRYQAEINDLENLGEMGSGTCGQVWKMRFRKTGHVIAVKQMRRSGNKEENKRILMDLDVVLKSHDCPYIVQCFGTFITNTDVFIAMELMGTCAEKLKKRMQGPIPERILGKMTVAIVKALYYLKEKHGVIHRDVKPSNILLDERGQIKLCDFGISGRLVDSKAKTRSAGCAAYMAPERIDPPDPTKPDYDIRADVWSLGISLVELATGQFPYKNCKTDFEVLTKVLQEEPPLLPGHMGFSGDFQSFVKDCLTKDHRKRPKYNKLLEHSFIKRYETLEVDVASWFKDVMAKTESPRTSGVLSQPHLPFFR
Experiment [17] addresses Calcium/calmodulin-dependent protein kinase type II subunit gamma (Homo sapiens) (UniProt Q13555). Put plainly: Inhibition of CAMK2G in human NCI-H929 cells at 10 uM by mass spectroscopic analysis relative to control. Format: cell-based.
The target of experiment [18] is Scaffold protein ILK (Homo sapiens) (UniProt Q13418). Put plainly: Inhibition of ILK in human NCI-H929 cells at 10 uM by mass spectroscopic analysis relative to control. Format: cell-based.
Experiment [19] concerns the target Maternal embryonic leucine zipper kinase (Homo sapiens) (UniProt Q14680). Put plainly: Inhibition of MELK in human NCI-H929 cells at 10 uM by mass spectroscopic analysis relative to control. Format: cell-based.
In experiment [20] the target is Ribosomal protein S6 kinase alpha-3 (Homo sapiens) (UniProt P51812). The experiment in a line: Inhibition of RSK2 domain 1 in human NCI-H929 cells at 10 uM by mass spectroscopic analysis relative to control. Type of experiment: cell-based.
Ribosomal protein S6 kinase alpha-3 (Homo sapiens), sequence (P51812 whole entry, the tested form may be a part): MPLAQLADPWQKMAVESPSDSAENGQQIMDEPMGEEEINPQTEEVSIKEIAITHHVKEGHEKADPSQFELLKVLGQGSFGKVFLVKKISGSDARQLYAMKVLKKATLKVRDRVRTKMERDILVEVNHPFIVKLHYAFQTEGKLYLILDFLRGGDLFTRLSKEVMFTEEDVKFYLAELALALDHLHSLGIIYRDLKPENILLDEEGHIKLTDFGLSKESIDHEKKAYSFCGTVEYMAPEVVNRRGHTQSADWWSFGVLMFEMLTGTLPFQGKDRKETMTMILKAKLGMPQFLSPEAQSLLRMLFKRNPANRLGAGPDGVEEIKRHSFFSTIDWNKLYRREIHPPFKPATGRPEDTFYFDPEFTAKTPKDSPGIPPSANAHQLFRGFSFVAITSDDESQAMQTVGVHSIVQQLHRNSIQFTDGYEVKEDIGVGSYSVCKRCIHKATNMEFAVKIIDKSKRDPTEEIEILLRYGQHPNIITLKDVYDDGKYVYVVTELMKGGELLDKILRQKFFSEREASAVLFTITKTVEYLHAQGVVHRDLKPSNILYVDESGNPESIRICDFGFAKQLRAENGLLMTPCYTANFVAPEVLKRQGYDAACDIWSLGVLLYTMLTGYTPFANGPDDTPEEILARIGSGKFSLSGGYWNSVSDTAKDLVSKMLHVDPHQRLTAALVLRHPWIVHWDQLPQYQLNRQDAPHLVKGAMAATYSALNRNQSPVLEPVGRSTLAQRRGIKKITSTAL
The target of experiment [21] is Mitogen-activated protein kinase kinase kinase 21 (Homo sapiens) (UniProt Q5TCX8). Put plainly: Inhibition of MLK4 in human NCI-H929 cells at 10 uM by mass spectroscopic analysis relative to control. Format: cell-based.
The target in experiment [22] is Mitogen-activated protein kinase 1 (Homo sapiens) (UniProt P28482). Put plainly: Inhibition of ERK2 in human NCI-H929 cells at 10 uM by mass spectroscopic analysis relative to control. Type of experiment: cell-based.
Mitogen-activated protein kinase 1 (Homo sapiens), sequence (P28482 whole entry): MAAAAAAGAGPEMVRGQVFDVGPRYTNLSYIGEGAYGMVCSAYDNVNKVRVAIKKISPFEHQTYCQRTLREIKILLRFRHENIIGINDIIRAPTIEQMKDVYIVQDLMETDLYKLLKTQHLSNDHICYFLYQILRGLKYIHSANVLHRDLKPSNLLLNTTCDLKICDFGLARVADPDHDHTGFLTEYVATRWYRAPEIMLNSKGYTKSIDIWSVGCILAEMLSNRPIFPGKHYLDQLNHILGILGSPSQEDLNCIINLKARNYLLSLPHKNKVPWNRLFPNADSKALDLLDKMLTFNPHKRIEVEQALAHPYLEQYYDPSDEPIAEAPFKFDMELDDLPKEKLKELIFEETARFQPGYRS
For experiment [23], the system named is NCI-H929. The experiment in a line: Induction of apoptosis in human NCI-H929 cells assessed as induction of PARP cleavage at 1 uM measured after 24 hrs by Western blot analysis. Type of experiment: functional, cell-based. (In general: A western blot detects proteins with antibodies after separation by electrophoresis.)
Experiment [24] addresses Mitogen-activated protein kinase kinase kinase 2 (Homo sapiens) (UniProt Q9Y2U5). The experiment in a line: Inhibition of MAP3K2 in human NCI-H929 cells at 10 uM by mass spectroscopic analysis relative to control. Type of experiment: cell-based.
The subject of experiment [25] is MM1.S. Put plainly: Induction of apoptosis in human MM1.S cells assessed as late apoptotic cells measured after 48 hrs by annevxinV/FITC-propidium iodide staining based flow cytometry (reference value: 2.09 %). Format: functional.
The test system of experiment [26] is MM1.S. Put plainly: Induction of apoptosis in human MM1.S cells assessed as necrotic cells measured after 48 hrs by annevxinV/FITC-propidium iodide staining based flow cytometry (reference value: 0.19 %). Format: functional.
Experiment [27] concerns NCI-H929. Put plainly: Upregulation of YAP1 protein level in human NCI-H929 cells at 3 to 10 uM measured after 72 hrs by Western blot analysis. Format: functional, cell-based. The following applies: dose 3-10 µM.
Experiment [28] has as its system NCI-H929. The experiment in a line: Upregulation of BAX protein level in human NCI-H929 cells at 1 uM measured after 24 hrs by Western blot analysis. Type of experiment: functional, cell-based.

Mitogen-activated protein kinase kinase kinase 1 (Homo sapiens), sequence (Q13233 whole entry): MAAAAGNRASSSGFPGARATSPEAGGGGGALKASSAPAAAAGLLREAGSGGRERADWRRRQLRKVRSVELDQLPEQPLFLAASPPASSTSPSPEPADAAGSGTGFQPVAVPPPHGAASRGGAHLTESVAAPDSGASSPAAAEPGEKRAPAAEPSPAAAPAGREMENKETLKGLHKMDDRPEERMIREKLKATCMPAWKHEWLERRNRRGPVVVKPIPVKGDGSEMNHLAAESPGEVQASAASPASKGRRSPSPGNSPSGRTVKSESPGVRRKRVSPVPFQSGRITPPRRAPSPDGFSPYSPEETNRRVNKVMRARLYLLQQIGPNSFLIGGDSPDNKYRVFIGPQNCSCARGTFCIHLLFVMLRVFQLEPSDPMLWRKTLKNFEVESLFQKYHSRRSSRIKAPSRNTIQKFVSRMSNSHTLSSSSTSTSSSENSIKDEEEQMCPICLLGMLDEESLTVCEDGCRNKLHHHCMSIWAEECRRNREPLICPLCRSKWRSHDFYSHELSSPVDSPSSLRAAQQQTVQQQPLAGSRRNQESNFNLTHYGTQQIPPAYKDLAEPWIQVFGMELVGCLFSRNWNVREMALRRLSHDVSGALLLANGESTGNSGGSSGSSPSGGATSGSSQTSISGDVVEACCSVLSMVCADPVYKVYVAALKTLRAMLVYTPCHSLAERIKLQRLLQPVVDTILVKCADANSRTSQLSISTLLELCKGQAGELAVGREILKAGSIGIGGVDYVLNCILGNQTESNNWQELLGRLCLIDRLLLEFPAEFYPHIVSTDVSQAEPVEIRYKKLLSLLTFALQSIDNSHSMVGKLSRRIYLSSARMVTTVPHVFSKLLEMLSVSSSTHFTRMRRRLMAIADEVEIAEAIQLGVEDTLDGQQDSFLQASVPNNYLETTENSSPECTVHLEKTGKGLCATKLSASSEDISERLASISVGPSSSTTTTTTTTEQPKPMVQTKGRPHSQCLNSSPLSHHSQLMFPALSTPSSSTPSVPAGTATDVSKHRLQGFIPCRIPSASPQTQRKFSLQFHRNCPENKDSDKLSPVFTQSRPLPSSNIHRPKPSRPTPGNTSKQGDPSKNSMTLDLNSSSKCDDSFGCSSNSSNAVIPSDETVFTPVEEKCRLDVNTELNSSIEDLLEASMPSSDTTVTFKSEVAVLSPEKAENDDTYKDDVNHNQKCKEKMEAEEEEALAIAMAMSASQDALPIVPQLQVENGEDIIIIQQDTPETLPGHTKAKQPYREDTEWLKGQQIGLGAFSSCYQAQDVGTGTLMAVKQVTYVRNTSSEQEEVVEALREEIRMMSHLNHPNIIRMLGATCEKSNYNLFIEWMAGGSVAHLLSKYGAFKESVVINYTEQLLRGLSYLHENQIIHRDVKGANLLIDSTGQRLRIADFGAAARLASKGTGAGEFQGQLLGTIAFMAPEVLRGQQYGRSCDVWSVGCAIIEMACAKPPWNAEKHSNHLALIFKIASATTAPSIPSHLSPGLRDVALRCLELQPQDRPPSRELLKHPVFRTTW
Phosphatidylinositol 5-phosphate 4-kinase type-2 alpha (Homo sapiens), sequence (P48426 whole entry): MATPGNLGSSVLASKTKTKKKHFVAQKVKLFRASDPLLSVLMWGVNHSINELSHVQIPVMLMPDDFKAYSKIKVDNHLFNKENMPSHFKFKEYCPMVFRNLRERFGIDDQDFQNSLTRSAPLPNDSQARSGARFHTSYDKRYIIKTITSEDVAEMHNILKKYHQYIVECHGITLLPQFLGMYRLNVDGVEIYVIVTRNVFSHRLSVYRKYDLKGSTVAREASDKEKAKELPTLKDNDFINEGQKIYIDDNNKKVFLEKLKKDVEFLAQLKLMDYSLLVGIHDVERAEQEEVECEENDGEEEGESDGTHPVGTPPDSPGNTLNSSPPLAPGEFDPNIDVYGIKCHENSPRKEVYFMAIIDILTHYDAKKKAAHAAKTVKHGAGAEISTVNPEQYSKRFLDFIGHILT

`CN(C1CC1)S(=O)(=O)c1ccc(-c2cnc(N)c(-c3ccc4c(c3)CCNC4=O)c2)c(F)c1` showed an inhibition in experiment [1] of 50%.

Take `COc1cc(NS(=O)(=O)C2CC2)ccc1-c1cnc(N)c(-c2ccc3c(c2)CCNC3=O)c1`: the inhibition worked out at 0% in experiment [2]; 75% in experiment [3]; 50% in experiment [4]; 50% in experiment [5]; 75% in experiment [6]; 50% in experiment [7]. Also, the inhibition in experiment [8] is 0%; in [9] it was 0%; in experiment [10] it was 75%; in [11], over 90%; in experiment [12] it was 0%; in experiment [13], over 90%. Further, the inhibition in experiment [14] turned out to be 0%; in [15] it was 0%; in [16], 75%; in [17] it was 75%; in [18], 50%.

As for `Nc1ncc(-c2ccc(NS(=O)(=O)C3CC3)cc2OC2CCCCC2)cc1-c1ccc2c(c1)CCNC2=O`, the inhibition in experiment [19], in experiment [20] and in experiment [21] was 50% each time.

`Nc1ncc(-c2cccc3ncsc23)cc1-c1ccc2c(c1)CCNC2=O` displayed an inhibition in experiment [22] of 50%.

`Nc1ncc(-c2cccc([N+](=O)[O-])c2F)cc1-c1ccc2c(c1)CCNC2=O`: the outcome with NCI-H929 [23] and in the experiment on NCI-H929 [28] was Active. The molecule also came in with an inhibition in [24] of under 50%. The Activity with MM1.S [25] came out at 25.05%; in the experiment on MM1.S [26], 29.41%. In addition, in the experiment on NCI-H929 [27], the outcome was inactive.

What is called inhibition is the percentage by which the read-out fell short of the control.
